One compound from patent US5125099A, “Obtaining heteropolysaccharide-producing microorganism and the microorganism agrobacterium radiobacter NCIB 40018” (Shell Internationale Research Maatschappij B.V., priority 1988, dated 1992) can be followed below.

In test [1] the test system is A. radiobacter strain AR18. The test is described as follows: Effect of glucose analogues on [14C]glucose uptake by strain AR18 grown under glucose limitation. It is filed as cell-based, Agrobacterium radiobacter. To be noted: Agrobacterium radiobacter, AR18, pH 7; unlabelled sugars 10 mM, [14C]glucose 250M, glucose-limited culture D = 0.045 h^-1, control rate 72 nmol min^-1 (mg dry wt)^-1. The method, then: (§1) Measurement of glucose uptake. […] Assays were carried out in an open-topped Rank oxygen electrode vessel containing 1 ml 20 mM HEPES/KOH buffer, pH 7.0, and 1 mg dry wt cells. The contents of the vessel were maintained at 30° C. and mixed continuously using a magnetic stirrer. […] Samples (50 ul) of the reaction mixture were withdrawn at 15 s intervals and the cells were collected on nitrocellulose filters of 0.45 uM pore size (2.5 cm dia.; Sartorius) by means of a manifold connected to a vacuum line. The filters were washed immediately using 3 ml 20 mM HEPES, pH 7.0, dried under an infra-red lamp and then immersed in 3 ml of Fisofluor 3 scintillant (Fisons Ltd.).

For another test, the system named is GBP2. The test is described as follows: Effect of unlabelled glucose analogues on binding of [14C]glucose to GBP2, equilibrium dialysis. Set-up: species or system Agrobacterium radiobacter. How it is done:
(§2) The capacity of glucose analogues to reduce the extent of binding of D-[U-^14 C]glucose to pure proteins was determined by modifying the assay procedure as follows. One chamber of each cell contained 0.5 nmol pure protein in 0.3 ml bis-Tris, pH 6.8, and the other chamber was loaded with 0.3 ml of buffer containing 3 nmol D-[U-^14 C]glucose [85 mCi mmol^-1 (3.2 GBq mmol )] plus 120 nmol of an unlabelled glucose analogue. The quantity of [^14 C]glucose that bound to the proteins in the presence and absence of unlabelled glucose analogues was determined after 30 h incubation.

Test [2] has as its system A. radiobacter strain AR9. Briefly: [14C]glucose uptake by strain AR9 grown under ammonia limitation. It is filed as cell-based. The note with it: Agrobacterium radiobacter, AR9, pH 7; ammonia-limited growth, forty-fold molar excess over [14C]glucose; read-out: Reduction of rate of glucose uptake by strain AR9.
Experimental: (§3) Measurement of glucose uptake. Rates of glucose uptake were determined by measuring the incorporation of D-[U-^14 C]glucose into whole cells over a period of 60 s. Assays were carried out in an open-topped Rank oxygen electrode vessel containing 1 ml 20 mM HEPES/KOH buffer, pH 7.0, and 1 mg dry wt cells. The contents of the vessel were maintained at 30° C. and mixed continuously using a magnetic stirrer. Assays were started by adding D-[U-^14 C]glucose [2 mCi mmol^-1 (74 MBq mmol^-1 ; 0.5 uCi (18.5 KBl)] to give a final concentration of 250 uM. Samples (50 ul) of the reaction mixture were withdrawn at 15 s intervals and the cells were collected on nitrocellulose filters of 0.45 uM pore size (2.5 cm dia.; Sartorius) by means of a manifold connected to a vacuum line. The filters were washed immediately using 3 ml 20 mM HEPES, pH 7.0, dried under an infra-red lamp and then immersed in 3 ml of Fisofluor 3 scintillant (Fisons Ltd.). The extent of incorporation of [^14 C]glucose into the cells was determined by counting the radioactivity on the filters using a Hewlett Packard Tri-Carb liquid scintillation counter (80-85% efficiency). Glucose uptake rates were measured in triplicate for each batch of cells and the standard errors never exceeded 10% of the mean values. […]
For test [3], the system named is A. radiobacter strain AR9. Briefly: Effect of glucose analogues on [14C]glucose uptake by strain AR9 grown under glucose limitation. It is filed as cell-based, Agrobacterium radiobacter. To be noted: Agrobacterium radiobacter, AR9, pH 7; unlabelled sugars 10 mM, [14C]glucose 250M, glucose-limited culture D = 0.045 h^-1, control rate 63 nmol min^-1 (mg dry wt)^-1. The method, then:
as §1

In test [4] the test system is A. radiobacter strain AR18. The test is described as follows: [14C]glucose uptake by strain AR18 grown under ammonia limitation. It is filed as cell-based. To be noted: Agrobacterium radiobacter, AR18, pH 7; ammonia-limited growth, forty-fold molar excess over [14C]glucose; read-out: Reduction of rate of glucose uptake by strain AR18.
Experimental: as §3
In another test the test system is GBP1. The test is described as follows: Effect of unlabelled glucose analogues on binding of [14C]glucose to GBP1, equilibrium dialysis. Set-up: species or system Agrobacterium radiobacter. How it is done: as §2
(In general: Equilibrium dialysis compares concentrations on both sides of a semipermeable membrane.)

Where [5] appears, read: 0.5 nmol pure protein, 3 nmol [14C]glucose plus 120 nmol unlabelled analogue, 30 h, 4° C.
Where [6] appears, read: competition with [14C]glucose in vitro, listed as D-Galactose.

SMILES strings stand for the structures.

Consider `O=C[C@H](O)[C@@H](O)[C@@H](O)[C@H](O)CO` [D-galactose], for which the activity at 10000 µM in test [1] came to 8%; in test [3], 75%. The “[14C]glucose bound GBP2” value with GBP2 (setting [5]) is reported as 99 % control value. Also, the “Effect on binding of glucose to GBP2 (in words)” value in the test on GBP2 (setting [6]) is given as “only effective with GBP1”. Also, the inhibition at 10000 µM is around 50% in test [2] and around 95% in test [4]. Moreover, the “[14C]glucose bound GBP1” value with GBP1 (setting [5]) is reported as 2 % control value. In addition, in the test on GBP1 (setting [6]), the “Effect on binding of glucose to GBP1 (in words)” value is recorded as “only effective with GBP1”.
